Consider 7 molecules from patent US20090304821A1, “Pharmaceutical Combination” (Takeda Pharmaceutical Company Limited, priority 2006, published 2009).

This assay concerns the target T1, human CaR (Homo sapiens, UniProt P41180).
T1 construct: expressed in transfected cells; cDNA amplified from human kidney cDNA (TOYOBO); membrane fraction used
T1 sequence (P41180 20-1078): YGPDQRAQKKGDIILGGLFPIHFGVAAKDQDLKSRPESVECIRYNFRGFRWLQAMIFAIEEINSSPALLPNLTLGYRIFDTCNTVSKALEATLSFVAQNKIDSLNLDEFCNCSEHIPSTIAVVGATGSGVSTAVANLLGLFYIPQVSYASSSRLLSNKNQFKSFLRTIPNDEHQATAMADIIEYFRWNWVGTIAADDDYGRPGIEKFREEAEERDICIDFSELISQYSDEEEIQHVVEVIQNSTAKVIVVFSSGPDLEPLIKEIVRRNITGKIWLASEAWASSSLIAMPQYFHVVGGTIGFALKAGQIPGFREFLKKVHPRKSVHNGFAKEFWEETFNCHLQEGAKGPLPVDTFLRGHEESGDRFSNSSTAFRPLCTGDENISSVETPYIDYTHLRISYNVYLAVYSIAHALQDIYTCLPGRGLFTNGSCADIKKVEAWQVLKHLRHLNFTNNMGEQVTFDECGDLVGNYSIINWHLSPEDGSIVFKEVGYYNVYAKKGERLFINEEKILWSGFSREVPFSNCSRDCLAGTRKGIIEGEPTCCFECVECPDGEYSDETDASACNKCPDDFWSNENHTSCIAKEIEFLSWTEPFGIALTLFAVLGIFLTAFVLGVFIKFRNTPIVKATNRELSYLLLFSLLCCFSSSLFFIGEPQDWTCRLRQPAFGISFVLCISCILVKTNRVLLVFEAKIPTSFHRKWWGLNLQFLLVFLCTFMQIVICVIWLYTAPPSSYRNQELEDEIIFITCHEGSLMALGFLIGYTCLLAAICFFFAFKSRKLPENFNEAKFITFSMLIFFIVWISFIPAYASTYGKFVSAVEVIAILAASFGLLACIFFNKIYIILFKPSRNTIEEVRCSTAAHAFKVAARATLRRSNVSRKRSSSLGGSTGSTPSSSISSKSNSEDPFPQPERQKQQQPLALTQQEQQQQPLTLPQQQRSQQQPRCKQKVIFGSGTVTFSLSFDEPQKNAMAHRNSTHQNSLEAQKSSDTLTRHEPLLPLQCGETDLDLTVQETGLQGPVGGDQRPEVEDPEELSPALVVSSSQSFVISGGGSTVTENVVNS
In words: GTPγS binding assay on human CaR-expressing CHO cell membrane. It counts as biochemical. Conditions: % of binding with 6 mM calcium only. The protocol:
Preparation of Membrane Fraction is Described Bellow. The human CaR-expressing CHO cells were inoculated to a F500 flask in 1.8×10^5 cells/flask followed by cultivation for 2 days. The cells were scraped with 10 ml of Phosphate-Buffered Saline containing 0.02% EDTA. After centrifugation (2000 rpm, 10 min) of the cells, the cell pellet was resuspended into 12 ml of homogenate buffer solution (10 mM NaHCO3, 1 mM EDTA, 1× Protease inhibitor cocktail (pH 7.4)) and homogenized by Polytron™ (2000 rpm, 1 min). The cell debris was removed by centrifugation (2000 rpm, 10 min), and then the CaR-expressing cell membrane fraction was collected by ultracentrifugation (Beckman 70 Ti type rotor, 30000 rpm, 1 hour).
The GTPγS binding activity was measured as follows. Twenty μg of the CaR-expressing cell membrane was incubated with test compounds for 10 min. The assays were carried out at room temperature for an hour in a reaction mixture solution containing 20 mM HEPES (pH.7.4), 100 mM NaCl, 1 mM MgCl2, 167 μg/ml DTT, 5 μM guanosine 5′-diphosphate, 0.4 nM [^35S]-guanosine 5′-(γ-thio) triphosphate ([^35S]-GTPγS) and 6 mM CaCl2. The reaction mixture was filtered through a GF/C filter. After washing four times with 300 μl of Phosphate-Buffered Saline, the amount of [^35S]-GTPγS bound to the filter was measured using a Top-count scintillation counter.
Effects of test compounds on [^35S]-GTPγS binding were expressed in percentage terms. This was calculated from the equation [100×(t′−b)]/(t−b)]. Herein, t′, t and b are values of [^35S]-GTPγS binding (dpm), t′ is a value in the presence of 6 mM calcium and the test compound, t is a value in the presence of 6 mM calcium only and b is a value in the absence of both 6 mM calcium and the test compound.
(GTPγS resists hydrolysis and so accumulates on activated G proteins.)

[1] abbreviates: 1 μM test compound, compounds marked antagonist.

On to `COc1ccc(C(CNC(=O)c2cnn3c2NC(c2ccccc2)CC3C(F)(F)F)c2ccccc2)cc1` (stereo not shown) [Test Compound 1, N-(2-(4-methoxyphenyl)-2-phenylethyl)-5-phenyl-7-(trifluoromethyl)-4,5,6,7-tetrahydropyrazolo[1,5-a]pyrimidine-3-carboxamide], for which the “[^35S]-GTPγS binding (%)” value under setting [1] was 34 (1 μM) %.
Same read-out and setting: the same measure for `COc1ccc(C(NC(=O)c2cnn3c2NC(c2ccccc2)CC3C)c2ccc(OC)cc2)cc1` (stereo not shown) [Test Compound 2, N-(bis(4-methoxyphenyl)methyl)-7-methyl-5-phenyl-4,5,6,7-tetrahydropyrazolo[1,5-a]pyrimidine-3-carboxamide]: 0 (1 μM) %; for `CCC(CC)(NC(=O)c1cnn2c1NC(c1ccccc1)CC2C(F)(F)F)c1ccc(C(F)(F)F)cc1` (stereo not shown) [Test Compound 3, N-(1-ethyl-1-(4-(trifluoromethyl)phenyl)propyl)-5-phenyl-7-(trifluoromethyl)-4,5,6,7-tetrahydropyrazolo[1,5-a]pyrimidine-3-carboxamide]: 0 (1 μM) %.
On the same count and under the same terms, the same measure for `Cc1ccc(C(OC2CCN(C(=O)c3cnn4c3NC(c3ccccc3)CC4C(F)(F)F)CC2)c2ccc(C)cc2)cc1` (stereo not shown) [Test Compound 4, 3-((4-(bis(4-methylphenyl)methoxy)-1-piperidinyl)carbonyl)-5-phenyl-7-(trifluoromethyl)-4,5,6,7-tetrahydropyrazolo[1,5-a]pyrimidine]: 10 (1 μM) %.
On the same count and under the same terms, the same measure for `CC1(C(F)(F)F)CC(c2ccccc2)Nc2c(C(=O)NC34CC5CC(CC(C5)C3)C4)cnn21` (stereo not shown) [Test Compound 5, N-(1-adamantyl)-7-methyl-5-phenyl-7-(trifluoromethyl)-4,5,6,7-tetrahydropyrazolo[1,5-a]pyrimidine-3-carboxamide]: 12 (1 μM) %; for `CCC(CC)(NC(=O)c1cnn2c1NC(c1ccccc1)CC2(C)C)c1ccc(-c2ccsc2)cc1` (stereo not shown) [Test Compound 6, N-(1-ethyl-1-(4-(3-thienyl)phenyl)propyl)-7,7-dimethyl-5-phenyl-4,5,6,7-tetrahydropyrazolo[1,5-a]pyrimidine-3-carboxamide]: 0 (1 μM) %.
Consider `O=C(NCC(c1ccccc1)N1CCCC1)c1cnn2c1NC(c1ccccc1)CC2C(F)(F)F` (stereo not shown) [Test Compound 7, 5-phenyl-N-(2-phenyl-2-(1-pyrrolidinyl)ethyl)-7-(trifluoromethyl)-4,5,6,7-tetrahydropyrazolo[1,5-a]pyrimidine-3-carboxamide], for which the “[^35S]-GTPγS binding (%)” value (10 μM test compound, compound marked agonist) is reported as 256 (10 μM) %.
